Experimental data as given in patent EP1487791B1, “A NOVEL ANTIFUNGAL MOLECULE 2-(3,4-DIMETHYL-2,5-DIHYDRO-1H-PYRROL-2-YL)- METHYLETHYL PENTANOATE” (priority 2002, dated 2003).
≈ marks a conversion by molar mass, not a printed value.

How the values were obtained:
Assay type in all cases: cell-based
Aspergillus sp. = assay: Microbroth dilution assay, MIC over the three species; details: no visual growth of the three species of Aspergillus, 48 h
Method: (§1) Pathogenic strains of fungi were obtained from the Mycology Department of Vallabhbhai Patel Chest Institute, Delhi. All the strains were grown on Sabouraud dextrose agar at 37°C. The conidia form these cultures were harvested and suspended in Sabouraud maltose broth. The number of conidia was counted using haemocytometer and their number in the suspension was adjusted to as per need of the experiment.
The antifungal susceptibility of the fungi to various fractions or the purified component was assayed by the microbroth, dilution method (Forthergill A.W. and McGough A.W., 1995, Clin. Microbiol. Procedure Handbook. In Vitro susceptibility Testing of Yeast, 5.15.1-5.15.15). The fungal spores were harvested from 96-h cultures and their number adjusted to 1x10^6 per ml. The Sabouraud Dextrose medium was dissolved in glass double distilled water and autoclaved at 10 psi for 15 min. 90-µl medium was added into the wells of cell culture plates. The different concentrations of the extract, fractions or the purified compound were prepared in duplicate wells and then the wells were inoculated with 10 µl of spore suspension. The plates were incubated at 37°C and examined macroscopically after 48 h for the growth of fungal mycelia. The activity was represented as -ve if growth was there and +ve if medium appeared clear with out any growth of fungi. […]

RAW cells = tested on: RAW cells
Method: The in vitro toxicity of the active molecule was studied by MTT assay using RAW cells (Mossman, T., 1983, J. Immunol. Methods, 65, 55-63).
The stock culture of RAW cells was obtained from National Facility for Cell and Tissue Culture, Pune. Cells were maintained in RPMI - 1640 medium supplemented with glutamine (2.3 gm/L), fetal calf serum (10% v/v) and gentamycin (50.0 mg/L) at 37°C in Nuair IR Autoflow water Jacketed carbon dioxide incubator.
The stock solution of the compound was prepared by dissolving 2.5 mg of the purified compound in minimum amount of DMSO and then diluted with double distilled water to make the final volume 1.0-ml. The different concentrations ranging from 1250.0 µg/ml to 19.5 µg/ml were tested in the cytotoxicity assay.
The cells were harvested at the log phase of growth confluency from the flask. The homogeneous suspension of cells was prepared in 2.0 ml of culture medium. The number of cells in the suspension was counted using a hemocytometer and the cell suspension was diluted in such a way so as to obtain 5x10^7 viable cells per ml. The viability of the cells was checked with trypan blue dye exclusion test. The cytotoxicity assay was performed in 96 wells flat bottom tissue culture plates (Nunc Nunclon). The cells ([…]) in 100.0 µl volume were seeded into each well. The plate was incubated at 37 °C in atmosphere of 5% (v/v) CO2 for 8 h. The wells were examined microscopically for the formation of monolayer of the cells. Various concentrations ranging from 1250.0 µg/ml to 19.5 µg/ml of the compound PC-1 (metelatropinyl ester) were added to the monolayer of cells. In +ve control wells, a known cytotoxic protein obtained from A. fumigatus, was used. […] After lysis of the cells, the plates were read at 540 nm using plate reader (Spectra Max 190, Molecular Device).
The toxicity of the compound was expressed as percentage with respect to that obtained in -ve control sample. The percent cytotoxicity was calculated using the formula given below. % Cytotoxicity = (OD in-ve control-OD in the test)/(OD in-ve control) × 100 [formula] […]

Aspergillus = assay: Disc diffusion assay, overall result for Aspergillus; details: concentration developing zone of inhibition of 6.0-mm diameter
Method: as §1
The leftover residue was finally dissolved in methanol. Dried fractions were examined for their antifungal activity.
The disc diffusion test was performed as per described in the section of details of invention. Amphotericin B 1.25 µg/disc was used in assay as positive control standard drug. Additional discs impregnated with equivalent amount of solvent were also used in the assay as negative controls (Fig: 5). […] Table 2: Antifungal activity of compound by disc diffusion method

A.flavus = assay: Microbroth dilution assay; set-up: key: +ve if medium appeared clear with out any growth of fungi; -ve if growth was there
Method: as §1
The antifungal susceptibility of the fungi to various fractions or the purified component was assayed by the microbroth, dilution method (Forthergill A.W. and McGough A.W., 1995, Clin. Microbiol. Procedure Handbook. In Vitro susceptibility Testing of Yeast, 5.15.1-5.15.15). The fungal spores were harvested from 96-h cultures and their number adjusted to 1x10^6 per ml. The Sabouraud Dextrose medium was dissolved in glass double distilled water and autoclaved at 10 psi for 15 min. 90-µl medium was added into the wells of cell culture plates. The different concentrations of the extract, fractions or the purified compound were prepared in duplicate wells and then the wells were inoculated with 10 µl of spore suspension. The plates were incubated at 37°C and examined macroscopically after 48 h for the growth of fungal mycelia. The activity was represented as -ve if growth was there and +ve if medium appeared clear with out any growth of fungi.
The antifungal susceptibility of the fungi to the purified compound was assayed by the microbroth dilution method. The different concentrations of the purified compound ranging from 21.87 to 350 µg/ml were prepared in duplicate wells by twofold dilution method. The test was done as described above. […] Table 1: Activity of the compound against Aspergillus sp. after 48 hrs.

Compound: CCCCC(=O)OC(C)CC1NCC(C)=C1C (centres unmarked) [PC-1, 2-(3,4-dimethyl-2,5-dihydro-1H-pyrrol-2-yl)-1-methylethyl pentanoate]
- MIC (Aspergillus sp.): 87.5 µg/mL (≈ 366 µM)
- concentration completely non-toxic to the cells (RAW cells): up to 312.5 µg/ml
- CT50 (dose cytotoxic to 50% of the cells) (RAW cells; RAW cells, MTT, 12 h): 889.2 µg/mL
- less cytotoxic than the standard antifungal drug such as Amphotericin B (RAW cells; comparison with Amphotericin B): 57.8 times
- MIC (Aspergillus): 5 µg/disc
- MIC (Aspergillus; listed as novel antifungal lead molecule): 5.0 µg/disc
- Activity against Aspergillus sp. after 48 hrs (A.flavus; 21.87 µg/ml): -
- Activity against Aspergillus sp. after 48 hrs (A.flavus; 43.75 µg/ml): -
- Activity against Aspergillus sp. after 48 hrs (A.flavus; 87.50 µg/ml): +
- Activity against Aspergillus sp. after 48 hrs (A.flavus; 175.00 µg/ml): +
- Activity against Aspergillus sp. after 48 hrs (A.flavus; 350.00 µg/ml): +
